Experimental data from PubChem BioAssay (NCI).
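Where inhibition never reached the appropriate level, the endpoint shown equals the highest concentration tested. Otherwise, values were interpolated linearly from a five-concentration, 48-hour dose response in 96-well plates. The concentration for 50% growth inhibition is given as GI50. TGI: total growth inhibition.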

What was measured:
Assay in all cases: DTP human tumour cell line panel, 48 h
UACC-257 melanoma = tested on: UACC-257 melanoma
HCT-116 colon = tested on: HCT-116 colon
OVCAR-3 ovarian = tested on: OVCAR-3 ovarian
OVCAR-4 ovarian = tested on: OVCAR-4 ovarian
SN12C renal = tested on: SN12C renal
SNB-19 CNS = tested on: SNB-19 CNS
A498 renal = tested on: A498 renal
NCI-H23 lung = tested on: NCI-H23 lung
SF-295 CNS = tested on: SF-295 CNS
M14 melanoma = tested on: M14 melanoma
SR leukemia = tested on: SR leukemia
SW-620 colon = tested on: SW-620 colon
SF-539 CNS = tested on: SF-539 CNS
NCI-H460 lung = tested on: NCI-H460 lung
HOP-62 NSCLC = tested on: HOP-62 NSCLC
MOLT-4 leukemia = tested on: MOLT-4 leukemia
COLO 205 colon = tested on: COLO 205 colon
HL-60(TB) leukemia = tested on: HL-60(TB) leukemia
T-47D breast = tested on: T-47D breast
HOP-92 NSCLC = tested on: HOP-92 NSCLC
ACHN renal = tested on: ACHN renal
786-0 renal = tested on: 786-0 renal
UO-31 renal = tested on: UO-31 renal
SK-OV-3 ovarian = tested on: SK-OV-3 ovarian
CCRF-CEM leukemia = tested on: CCRF-CEM leukemia
BT-549 breast = tested on: BT-549 breast
A549 NSCLC = tested on: A549 NSCLC
PC-3 prostate = tested on: PC-3 prostate

## Cc1ccc(NC2=C(Sc3ccc(Cl)cc3)C(=O)N(Cc3ccccc3)C2=O)cc1Cl
UACC-257 melanoma
  GI50: 7.37 µM
  TGI: 30.3 µM
HCT-116 colon
  GI50: 3.6 µM
  TGI: 15 µM
OVCAR-3 ovarian
  GI50: 2.09 µM
  TGI: 5.31 µM
OVCAR-4 ovarian
  GI50: 4.82 µM
  TGI: 18 µM
SN12C renal
  GI50: 12.3 µM
  TGI: 29 µM
SNB-19 CNS
  GI50: 6.03 µM
  TGI: 28.9 µM
A498 renal
  GI50: 4.8 µM
  TGI: 17.1 µM
NCI-H23 lung
  GI50: 13.3 µM
  TGI: 32.8 µM
SF-295 CNS
  GI50: 5.86 µM
  TGI: > 100 µM
M14 melanoma
  GI50: 3.88 µM
  TGI: 17.5 µM
SR leukemia
  GI50: 2.86 µM
  TGI: 8.12 µM
SW-620 colon
  GI50: 6.01 µM
  TGI: 36.2 µM
SF-539 CNS
  GI50: 3.45 µM
  TGI: 16.9 µM
NCI-H460 lung
  GI50: 5.75 µM
  TGI: 39.8 µM
HOP-62 NSCLC
  GI50: 3.14 µM
  TGI: 10.4 µM
MOLT-4 leukemia
  GI50: 10.5 µM
  TGI: 26 µM
COLO 205 colon
  GI50: 31.9 µM
  TGI: > 100 µM
HL-60(TB) leukemia
  GI50: 11.9 µM
  TGI: 27.6 µM
T-47D breast
  GI50: 5.32 µM
  TGI: 66.4 µM
HOP-92 NSCLC
  GI50: 4.59 µM
  TGI: 17 µM
ACHN renal
  GI50: 4.91 µM
  TGI: 17.1 µM
786-0 renal
  GI50: 10.3 µM
  TGI: 22.4 µM
UO-31 renal
  GI50: 8.73 µM
  TGI: 22.1 µM
SK-OV-3 ovarian
  GI50: 18.2 µM
  TGI: 45.7 µM
CCRF-CEM leukemia
  GI50: 11.1 µM
  TGI: 23.1 µM
BT-549 breast
  GI50: 10.4 µM
  TGI: 24 µM
A549 NSCLC
  GI50: 3.38 µM
  TGI: 15.9 µM
PC-3 prostate
  GI50: 5.47 µM
  TGI: 19.7 µM
